# Results as given in patent US4347319A, “Microbiological epoxidation process” (priority 1980, dated 1982).
# Assays:
# [1] = tested on: Torulopsis sp. Strain A1 (NRRLY-11,419); test: Oxidation of sec-alcohols to ketones by cell suspensions of yeasts; type: cell-based; settings: sec-alcohol to methyl ketone
# [2] = tested on: Kloeckera sp. Strain A2 (NRRLY-11,420); test: as above; type: cell-based; settings: sec-alcohol to methyl ketone
# [3] = tested on: cell extract of Candida utilis ATCC 26,387; test: Oxidation of secondary alcohols to methylketone by cell extracts of yeasts; type: biochemical; settings: methanol-grown; cell extract + NAD^+; sec. alcohol to methyl ketone; gas chromatography
# [4] = tested on: cell extract of Pichia sp. NRRL-Y-11,328; test: as above; type: biochemical; settings: methanol-grown; cell extract + NAD^+; sec. alcohol to methyl ketone; gas chromatography
# [5] = tested on: cell extract of Hansenula polymorpha ATCC 26,012; test: as above; type: biochemical; settings: methanol-grown; cell extract + NAD^+; sec. alcohol to methyl ketone; gas chromatography
# [6] = tested on: Hansenula polymorpha ATCC 26012; test: Oxidation of sec-alcohols to ketones by cell suspensions of yeasts; type: cell-based; settings: sec-alcohol to methyl ketone
# [7] = tested on: Methylobacterium organophilum CRL 26 NRRL B-11,222; test: Sec. alcohol oxidation by cell suspensions of methanol-grown cells; type: cell-based; settings: sec. alcohol to methyl ketone
# Source text: (§1) In this example, the procedure of Example 1 was repeated except that a plurality of the methane-utilizing methylotrophic microorganisms of the invention were each aerobically grown in a methanol-containing nutrient medium instead of a methane-containing medium. The nutrients in the medium were the same as indicated in Example 1 except that 0.4% v/v methanol was used as the alcohol dehydrogenase enzyme inducer and major source of carbon and energy for growth. Following growth the cells were harvested and washed as described in Example 1. The resting cells of the induced methanol-grown methylotrophic microorganisms were then contacted with a […] under aerobic conditions in a buffered solution by the procedure described in Example 1.
# [8] = tested on: Methylobacter chroococcum CRL M6 NRRL B-11,214; test: as above; type: cell-based; settings: sec. alcohol to methyl ketone
# Source text: as §1
# [9] = tested on: Methylobacter vinelandii CRL M5Y NRRL B-11,218; test: as above; type: cell-based; settings: sec. alcohol to methyl ketone
# Source text: as §1
# [10] = tested on: Methylomonas methanica CRL M4P NRRL B-11,205; test: as above; type: cell-based; settings: sec. alcohol to methyl ketone
# Source text: as §1
# [11] = tested on: Methylosinus trichosporium CRL 15 NRRL B-11,202; test: as above; type: cell-based; settings: sec. alcohol to methyl ketone
# Source text: as §1
# [12] = tested on: Methylococcus capsulatus CRL M1 NRRL B-11,219; test: as above; type: cell-based; settings: sec. alcohol to methyl ketone
# Source text: as §1
# [13] = tested on: Methylocystis parvus CRL 18 NRRL B-11,204; test: as above; type: cell-based; settings: sec. alcohol to methyl ketone
# Source text: as §1
# [14] = tested on: cell extract of Kloeckera sp. strain A2 NRRL-Y-11,420; test: Oxidation of secondary alcohols to methylketone by cell extracts of yeasts; type: biochemical; settings: methanol-grown; cell extract + NAD^+; sec. alcohol to methyl ketone; gas chromatography
# Pichia sp. NRRL-Y-11328 = test: Oxidation of sec-alcohols to ketones by cell suspensions of yeasts; type: cell-based; settings: sec-alcohol to methyl ketone
# [15] = tested on: Candida utilis ATCC 26387; test: as above; type: cell-based; settings: sec-alcohol to methyl ketone
# [16] = tested on: purified secondary alcohol dehydrogenase from Pichia sp. NRRL Y-11,328; test: Substrate specificity, electron acceptor and stoichiometry of purified yeast SADH; type: biochemical; settings: examined spectrophotometrically
# [17] = tested on: cell extract of Torulopsis sp. strain A1 NRRL-Y-11,419; test: Oxidation of secondary alcohols to methylketone by cell extracts of yeasts; type: biochemical; settings: methanol-grown; cell extract + NAD^+; sec. alcohol to methyl ketone; gas chromatography
smiles,measurement,setting,value
CCCC(C)O (centres unmarked) [2-Pentanol],Conversion Rate,[1]; growth substrate Ethanol,1.2 μmoles/hr/mg of protein
same,Conversion Rate,[1]; growth substrate Methanol,1.0 μmoles/hr/mg of protein
same,Conversion Rate,[1]; growth substrate Methylamine,0.9 μmoles/hr/mg of protein
same,Conversion Rate,[1]; growth substrate Methylformate,1.1 μmoles/hr/mg of protein
same,Conversion Rate,[1]; growth substrate Propylamine,0.62 μmoles/hr/mg of protein
same,Conversion Rate,[2]; growth substrate Ethanol,1.0 μmoles/hr/mg of protein
same,Conversion Rate,[2]; growth substrate Methanol,1.2 μmoles/hr/mg of protein
same,Conversion Rate,[2]; growth substrate Methylamine,1.0 μmoles/hr/mg of protein
same,Conversion Rate,[2]; growth substrate Methylformate,1.2 μmoles/hr/mg of protein
same,Conversion Rate,[2]; growth substrate Propylamine,0.92 μmoles/hr/mg of protein
same,Conversion Rate,[3],0.82 μmoles/hr/mg Protein
same,Conversion Rate,[4],1.2 μmoles/hr/mg Protein
same,Conversion Rate,[5],1.0 μmoles/hr/mg Protein
same,Conversion Rate,[6]; growth substrate Ethanol,1.1 μmoles/hr/mg of protein
same,Conversion Rate,[6]; growth substrate Methanol,1.4 μmoles/hr/mg of protein
same,Conversion Rate,[6]; growth substrate Methylamine,1.2 μmoles/hr/mg of protein
same,Conversion Rate,[6]; growth substrate Methylformate,1.3 μmoles/hr/mg of protein
same,Conversion Rate,[6]; growth substrate Propylamine,0.82 μmoles/hr/mg of protein
same,Conversion Rates,[7],1.0 μmoles/hr/mg protein
same,Conversion Rates,[8],0.08 μmoles/hr/mg protein
same,Conversion Rates,[9],0.05 μmoles/hr/mg protein
same,Conversion Rates,[10],0.05 μmoles/hr/mg protein
same,Conversion Rates,[11],0.09 μmoles/hr/mg protein
same,Conversion Rates,[12],0.24 μmoles/hr/mg protein
same,Conversion Rates,[13],0.07 μmoles/hr/mg protein
same,Conversion Rate,[14],1.2 μmoles/hr/mg Protein
same,Conversion Rate,Pichia sp. NRRL-Y-11328; growth substrate Ethanol,1.0 μmoles/hr/mg of protein
same,Conversion Rate,Pichia sp. NRRL-Y-11328; growth substrate Methanol,1.2 μmoles/hr/mg of protein
same,Conversion Rate,Pichia sp. NRRL-Y-11328; growth substrate Methylamine,0.72 μmoles/hr/mg of protein
same,Conversion Rate,Pichia sp. NRRL-Y-11328; growth substrate Methylformate,0.98 μmoles/hr/mg of protein
same,Conversion Rate,Pichia sp. NRRL-Y-11328; growth substrate Propylamine,0.60 μmoles/hr/mg of protein
same,Conversion Rate,[15]; growth substrate Ethanol,1.0 μmoles/hr/mg of protein
same,Conversion Rate,[15]; growth substrate Methanol,1.5 μmoles/hr/mg of protein
same,Conversion Rate,[15]; growth substrate Methylamine,1.2 μmoles/hr/mg of protein
same,Conversion Rate,[15]; growth substrate Methylformate,1.3 μmoles/hr/mg of protein
same,Conversion Rate,[15]; growth substrate Propylamine,0.9 μmoles/hr/mg of protein
same,oxidation by the purified enzyme,[16],catalyzed the oxidation
same,Conversion Rate,[17],1.0 μmoles/hr/mg Protein
